Test results taken from article PMC11855827, “High-Throughput Screening of Five Compound Libraries for Anthelmintic Activity and Toxicity Leads to the Discovery of Two Flavonoid Compounds” (International Journal of Molecular Sciences, 2025).
Where “and” joins values, the source holds several entries; their conditions need not be identical. Equal values may be shown once.

System: C. elegans
Conditions: Table S2, C. elegans SS assay, 110 μM, averages of 4 data points

Row | Compound | Percentage of motility inhibition 0 h | Percentage of motility inhibition 24 h
1 | CC(C)(O)[C@@H]1CC[C@](C)([C@H]2[C@@H](O)C[C@@]3(C)[C@@H]4C[C@H](O[C@@H]5O[C@H](CO)[C@@H](O)[C@H](O)[C@H]5O)[C@H]5C(C)(C)[C@@H](O[C@@H]6OC[C@@H](O)[C@H](O)[C@H]6O[C@@H]6O[C@H](CO)[C@@H](O)[C@H](O)[C@H]6O)CC[C@@]56C[C@@]46CC[C@]23C)O1 [Astragaloside VI] | 3% | 0%
2 | COc1ccc(/C=C/C(=O)c2c(O)cc(OC)cc2OC)cc1 [(E)‐Flavokawain A] | 33% | 11%
3 | CC(C)=CCc1cc(C(=O)/C=C/c2ccc(O)cc2)c(O)cc1O [Bavachalcone] | 39% | 18%
4 | C=C1CC[C@@H]2[C@](C)(CO)[C@H](O)CC[C@]2(C)[C@@H]1/C=C/C1=CCOC1=O [14-Deoxy-11,12-didehydroandrographolide] | 0% | 6%
5 | Cn1nnc(-c2ccc(-c3ccc(N4C[C@@H](CO)OC4=O)cc3F)cn2)n1 [(S)‐Tedizolid] | 26% | 5%
6 | COc1ccc(-c2cc(=O)c3c(O)cc(O[C@@H]4O[C@H](CO)[C@@H](O)[C@H](O)[C@H]4O[C@@H]4O[C@@H](C)[C@H](O)[C@@H](O)[C@H]4O)cc3o2)cc1O [Neodiosmin] | 14% | 6%
7 | C=C1[C@H]2C[C@H]2[C@]2(C)Cc3occ(C)c3[C@H](OC(C)=O)[C@@H]12 [Linderene acetate] | 8% | 20%
8 | Nc1ccc(C(=O)[O-])c(O)c1.O.O.[Na+] | 24% | 6%
9 | C=C(C)[C@@H]1CC=C(CO)CC1 [(S)-(−)-Perillyl alcohol] | 36% | 35%
10 | C=C[C@]1(C)CC[C@@H](C(=C)C)C[C@H]1C(=C)C [β-Elemene] | 9% and 7% | 
11 | C[C@H]1O[C@H](OC2[C@@H](O)[C@@H](O)C(O)[C@H](O)[C@H]2O)[C@@H](N)C[C@@H]1N=C(N)C(=O)O.Cl.O (some centres unmarked) [Kasugamycin (hydrochloride hydrate)] | 12% | 0%
12 | c1cn[nH]c1 [1H‐pyrazole] | 0% | 21%
13 | C=C1[C@H](OC(=O)/C=C(\C)CC)C[C@@H](C(C)C)[C@@H]2[C@@H]([C@@H](C)OC(C)=O)C(=O)C[C@@H]12 [Tussilagone] | 12% | 31%
14 | 4'‐O‐Methylbavachalcone | 19% | 3%
15 | Cycleanine | 4% | 4%
16 | CC1(C)[C@@H](O[C@@H]2O[C@H](C(=O)O)[C@@H](O)[C@H](O)[C@H]2O[C@@H]2O[C@H](C(=O)O)[C@@H](O)[C@H](O)[C@H]2O)CC[C@]2(C)[C@H]3C(=O)C=C4[C@@H]5C[C@](C)(C(=O)O)CC[C@]5(C)CC[C@@]4(C)[C@]3(C)CC[C@@H]12 [Licorice-saponin H2] | 0% | 14%
17 | CC(/C=C/C=C(\C)C(=O)O[C@@H]1O[C@H](CO)[C@@H](O)[C@H](O)[C@H]1O)=C\C=C\C=C(C)\C=C\C=C(/C)C(=O)O[C@@H]1O[C@H](CO[C@@H]2O[C@H](CO)[C@@H](O)[C@H](O)[C@H]2O)[C@@H](O)[C@H](O)[C@H]1O [Crocin II] | 27% | 1%
18 | CC(C)=CCC[C@]1(C)CC[C@]2(C)[C@H]3CC[C@@]4(C)[C@@H](CCC(=O)[C@@H]4C)[C@]3(C)CC[C@@]2(C)C1 [Shionone] | 24% | 52%
19 | CC(C)=CCC[C@](C)(O[C@@H]1O[C@H](CO[C@@H]2OC[C@H](O[C@@H]3OC[C@@H](O)[C@H](O)[C@H]3O)[C@H](O)[C@H]2O)[C@@H](O)[C@H](O)[C@H]1O)[C@H]1CC[C@]2(C)[C@@H]1[C@H](O)C[C@@H]1[C@@]3(C)CC[C@H](O[C@@H]4O[C@H](CO)[C@@H](O)[C@H](O)[C@H]4O[C@@H]4O[C@H](CO)[C@@H](O)[C@H](O)[C@H]4O)C(C)(C)[C@@H]3CC[C@]12C [Ginsenoside Ra1] | 0% | 0%
20 | O=C1C[C@@H](c2ccc(O)c(O)c2)Oc2cc(O[C@@H]3O[C@H](CO)[C@@H](O)[C@H](O)[C@H]3O)cc(O)c21 [Eriodictyol‐7‐O‐glucoside] | 11% | 4%
21 | C[C@H]1[C@H]2[C@H](O[C@@H]3O[C@H](CO)[C@@H](O)[C@H](O)[C@H]3O)OC=C(C(=O)O)[C@H]2C[C@@H]1O [8-Epiloganic acid] | 4% | 15%

Row | Compound | Percentage of motility inhibition 0 h | Percentage of motility inhibition 24 h
22 | CC1(C)CC[C@]2(C(=O)O)CCC3=C(CC[C@@H]4[C@@]5(C)C[C@H](O)[C@H](O)[C@@](C)(C(=O)O)[C@@H]5CC[C@@]34C)[C@@H]2C1 [Polygalic acid] | 0% | 1%
23 | CO[C@@H]1[C@@H](OC(N)=O)[C@@H](O)[C@H](Oc2ccc3c([O-])c(NC(=O)c4ccc(O)c(CC=C(C)C)c4)c(=O)oc3c2C)OC1(C)C.[Na+] [Novobiocin (sodium)] | 6% | 6%
24 | C/C1=C\[C@@H]2[C@H](C/C=C(/CO)[C@@H](O)[C@@H]3[C@@H](O)[C@@H](C)C[C@]3(O)C1=O)C2(C)C [17-Hydroxyisolathyrol] | 13% | 29%
25 | O=c1ccoc2cc(O)ccc12 [7‐Hydroxy‐4H‐chromen‐4‐one] | 0% | 8%
26 | O=c1cc(-c2ccc(O)cc2)oc2cc(O[C@@H]3O[C@H](CO)[C@@H](O)[C@H](O)[C@H]3O)cc(O)c12 [Apigenin 7‐glucoside] | 10% | 40%
27 | CC1=C[C@]23C(=O)[C@@H](C=C(COC(=O)c4ccccc4)[C@@H](O)[C@]2(O)[C@H]1OC(=O)c1ccccc1)[C@H]1[C@@H](C[C@H]3C)C1(C)C [Ingenol 3,20-dibenzoate] | 0% | 0%
28 | C=C(C)[C@H]1C=C[C@@](C)(O)CC1 [cis-Isolimonenol] | 2% | 30%
29 | CCn1cc(C(=O)O)c(=O)c2cc(F)c(N3CCNCC3)nc21 [Enoxacin (hydrate)] | 17% | 0%
30 | CCN(CC)C(=O)c1cccc(C)c1 [DEET] | 59% | 25%
31 | CN1C[C@@H]2C[C@H]1CN2c1cc2c(cc1F)c(=O)c(C(=O)O)cn2C1CC1.CS(=O)(=O)O [Danofloxacin (mesylate)] | 0% | 15%
32 | O=Cc1ccc(O[C@@H]2O[C@H](CO)[C@@H](O)[C@@H](O)[C@H]2O)cc1 [Helicid] | 11% | 4%
33 | (-)-Huperzine A |  | 7% and 15%
34 | CC(C)C[C@H]1C(=O)O[C@H](Cc2ccc(N3CCOCC3)cc2)C(=O)N(C)[C@@H](CC(C)C)C(=O)O[C@H](C)C(=O)N(C)[C@@H](CC(C)C)C(=O)O[C@H](Cc2ccc(N3CCOCC3)cc2)C(=O)N(C)[C@@H](CC(C)C)C(=O)O[C@H](C)C(=O)N1C [Emodepside] | 69% | 47%
35 | COc1cc2c(cc1OC)[C@@H](Cc1ccc(O)c(Oc3cc4c(cc3OC)CCN(C)[C@@H]4Cc3ccc(O)cc3)c1)N(C)CC2 [Liensinine] | 34% | 8%
36 | COc1cc(/C=C/C(=O)[O-])ccc1O.[Na+] [Ferulic acid (sodium)] | 10% | 0%
37 | CC(C)C1=CC(=O)[C@@](C)([C@H]2[C@H](O)C[C@@]3(C)[C@@H]4CC=C5[C@@H](CC[C@@H](O[C@@H]6OC[C@@H](O)[C@H](O)[C@H]6O[C@@H]6O[C@@H](C)[C@H](O)[C@@H](O)[C@H]6O)C5(C)C)[C@]4(C)C(=O)C[C@]23C)O1 [Picfeltarraenin IA] | 5% | 2%
38 | COc1cc2c(cc1OC)-c1cc3ccc(OC)c(O)c3c[n+]1CC2.[OH-] [Palmaturbine (hydroxide)] | 0% | 8%
39 | Cc1cc(O)c(C(=O)N[C@@H](C(=O)N[C@@H]2C(=O)N3C(C(=O)[O-])=C(CSc4nnnn4C)CS[C@H]23)c2ccc(O)cc2)cn1.[Na+] [Cefpiramide (sodium)] | 0% | 7%
40 | C[C@@H]1O[C@@H](O[C@H]2[C@H](O)[C@@H](O)[C@H](OC[C@H]3O[C@@H](OC(=O)[C@]45CCC(C)(C)C[C@H]4C4=CC[C@@H]6[C@@]7(C)CC[C@H](O[C@@H]8OC[C@H](O)[C@H](O)[C@H]8O)[C@@](C)(CO)[C@@H]7CC[C@@]6(C)[C@]4(C)CC5)[C@H](O)[C@@H](O)[C@@H]3O)O[C@@H]2CO)[C@H](O)[C@H](O)[C@H]1O [Hederacoside D] | 2% | 2%
41 | C=C1C[C@@]23CC[C@H]4[C@@](C)(CCC[C@@]4(C)C(=O)O[C@@H]4O[C@H](CO)[C@@H](O)[C@H](O)[C@H]4O[C@@H]4O[C@H](CO)[C@@H](O)[C@H](O)[C@H]4O)[C@@H]2CC[C@]1(O[C@@H]1O[C@H](CO)[C@@H](O)[C@H](O[C@@H]2O[C@H](CO)[C@@H](O)[C@H](O)[C@H]2O)[C@H]1O[C@@H]1O[C@H](CO)[C@@H](O)[C@H](O)[C@H]1O)C3 [Rebaudioside D] | 11% | 3%
